We go through 1 substance from US7442547B2, “Dendritic cells and the uses thereof in screening cellular targets and potential drugs” (Sekmed, S.R.L., priority 2001, dated 2008).

The subject of the assay is DC (D1, D8, BMDC/RAG2−/−). Put plainly: IL-2 production by DC after stimulation in vitro (IL-2 ELISA of supernatant). The assay is classed as cell-based, mouse. As to conditions: splenic (D1) and bone marrow-derived DC (D8, BMDC/RAG2−/−), long- and short-term lines. The procedure:
Antibodies and Reagents. LPS (E. Coli 026:B6, used at 10 μg/ml) and zymosan (used at 10 μg/ml) were obtained from Sigma Chem. (St. Louis, Mo.). rTNF, (San Francisco) and rIL-1. (Genzyme, Cambridge Mass.) were used at 100 U/ml and 10 μg/ml respectively. IFN was kindly provided by Schering-Plough (Dardilli, Fr.) and used at 1000 U/ml. CpG ([…])(SEQ ID NO. 5) and CpG control ([…]) (SEQ ID NO. 6) oligos were purchased from Life Technologies and used at a concentration of 1 µM. PE-conjugated anti-IL-2, PE-conjugated rat Isotype control, biotinilated anti-CD8α and FITC-conjugated anti-CD11c monoclonal antibodies were purchased from Pharmingen. Quantum-red-conjugated streptavidin was obtained from Sigma. Anti-I-A^d/I-E^d mAb (clone M5 /114, rat IgG2b) was kindly provided by Dr. A. Ager (NIMR, London, UK). FITC-conjugated anti-rat was from Jackson ImmunoResearch (West Grove, Pa.). Anti-CD40 antibody [clone FGK45 (10)] was used at a concentration of 20 μg/ml and crosslinked with a monoclonal anti-rat antibody (10 μg/ml, PharMingen).
DC and culture medium. D1 and D8.1 long term DC were cultured in IMDM (Sigma, St. Louis, Mo.) containing 10% heat-inactivated fetal bovine serum (GIBCO), 100 IU penicillin, 100 μg/ml streptomycin, 2 mM L-glutamine (all from Sigma), and 50 μM 2-mercaptoethanol (complete IMDM) with 30% supernatant from R1 medium [supernatant from NIH3T3 fibroblasts transfected with GM-CSF].
Fresh BMDCRAG2−/− were derived from RAG2−/− BALB/c or C57BL/6 bone marrow cells. Usually bone marrow cells cultured for two days and frozen. BMDCRAG2−/− were obtained from defrost cells after 7 days of culture in medium containing 10% of supernatant of GM-CSF transduced B16 tumor cells. BMDCRAG2−/− were used for activation only if they were immature, as judged by low B7.2 and CD40 expression.
IL-2 ELISA. IL-2 ELISA was performed using the DuoSet kit (R and D, Minneapolis, Minn.) and following the manufacturer recommendations. […]
On the technique in general: ELISA stands for enzyme-linked immunosorbent assay.

For the substance tumor necrosis factor [TNFα], the “induction of IL-2 production/secretion by DC” value is reported as “none of the inflammatory cytokines, used individually or added simultaneously to DC cultures, were able to promote IL-2 secretion”.
